This is an account of results in ChEMBL document CHEMBL1122283, “Angiotensin converting enzyme inhibitors: 1-glutarylindoline-2-carboxylic acids derivatives” (J Med Chem, 1983).

The target in experiment [1] is T1, Angiotensin-converting enzyme (Oryctolagus cuniculus, UniProt P12822).
T1 sequence (P12822 whole entry): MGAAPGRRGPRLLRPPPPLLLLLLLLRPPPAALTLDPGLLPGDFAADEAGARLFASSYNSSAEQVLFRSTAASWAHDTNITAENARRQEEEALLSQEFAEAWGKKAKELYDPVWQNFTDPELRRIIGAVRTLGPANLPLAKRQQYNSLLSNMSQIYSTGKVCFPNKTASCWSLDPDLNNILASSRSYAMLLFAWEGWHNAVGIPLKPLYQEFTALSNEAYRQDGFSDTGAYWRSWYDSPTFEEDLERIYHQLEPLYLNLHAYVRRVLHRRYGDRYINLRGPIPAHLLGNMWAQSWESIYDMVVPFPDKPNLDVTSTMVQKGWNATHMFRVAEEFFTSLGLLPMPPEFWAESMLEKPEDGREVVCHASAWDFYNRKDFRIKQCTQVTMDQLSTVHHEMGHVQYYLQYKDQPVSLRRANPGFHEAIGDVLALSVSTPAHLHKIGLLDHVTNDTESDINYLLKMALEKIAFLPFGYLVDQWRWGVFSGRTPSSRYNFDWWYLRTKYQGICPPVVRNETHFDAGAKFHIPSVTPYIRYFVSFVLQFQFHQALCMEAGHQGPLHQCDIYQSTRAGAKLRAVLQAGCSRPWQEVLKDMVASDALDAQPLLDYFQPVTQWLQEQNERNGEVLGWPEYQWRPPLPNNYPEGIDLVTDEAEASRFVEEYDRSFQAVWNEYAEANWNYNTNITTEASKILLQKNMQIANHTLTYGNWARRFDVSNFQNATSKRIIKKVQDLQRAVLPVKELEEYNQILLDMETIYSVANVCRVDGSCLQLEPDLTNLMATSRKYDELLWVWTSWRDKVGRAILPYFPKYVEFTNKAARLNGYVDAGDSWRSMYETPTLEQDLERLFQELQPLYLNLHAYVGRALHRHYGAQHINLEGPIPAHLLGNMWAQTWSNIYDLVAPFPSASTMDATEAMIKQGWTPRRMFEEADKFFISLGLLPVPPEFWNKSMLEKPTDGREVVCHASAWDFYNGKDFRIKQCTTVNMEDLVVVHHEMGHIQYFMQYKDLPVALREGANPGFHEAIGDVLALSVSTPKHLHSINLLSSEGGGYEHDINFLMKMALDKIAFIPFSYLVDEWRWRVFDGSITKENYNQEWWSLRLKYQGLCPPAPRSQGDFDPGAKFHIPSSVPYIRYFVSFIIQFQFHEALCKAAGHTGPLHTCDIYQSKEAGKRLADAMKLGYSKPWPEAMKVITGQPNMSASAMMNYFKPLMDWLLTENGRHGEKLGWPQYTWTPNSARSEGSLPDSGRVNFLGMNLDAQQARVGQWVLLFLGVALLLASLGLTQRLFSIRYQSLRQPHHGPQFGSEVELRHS
The experiment in a line: In vitro inhibition of angiotensin I converting enzyme (ACE).

Experiment [2] concerns Rattus norvegicus. The experiment in a line: In vivo percent inhibition of angiotensin I pressor response 15 min after 0.4 mg/kg, iv administration in spontaneously hypertensive rat (SHR). Conditions: 0.25 h. Format: functional.
The test system of experiment [3] is Rattus norvegicus. The experiment in a line: Maximal change in blood pressure recorded during the 4-day test period in spontaneously hypertensive rat (SHR)at 30 mg/kg, po dose. Format: functional.
The subject of experiment [4] is Rattus norvegicus. The experiment in a line: In vivo percent inhibition of angiotensin I pressor response 15 min after 0.10 mg/kg, iv administration in spontaneously hypertensive rat (SHR). Format: functional. Conditions: 0.25 h.
Experiment [5] has as its system Rattus norvegicus. The experiment in a line: Maximal change in blood pressure recorded during the 4-day test period in spontaneously hypertensive rat (SHR)at 50 mg/kg, p.o. dose. The following applies: route oral. Format: functional.
Experiment [6] relates to Rattus norvegicus. The experiment in a line: In vivo percent inhibition of angiotensin I pressor response 15 min after 1 mg/kg, iv administration in spontaneously hypertensive rat (SHR). The following applies: for inhibition in vivo at 1 mg/kg: Rattus norvegicus, iv, 0.25 h. In kind it is functional.
The subject of experiment [7] is Rattus norvegicus. The experiment in a line: In vivo percent inhibition of angiotensin I pressor response 15 min after 10 mg/kg, iv administration in spontaneously hypertensive rat (SHR). The following applies: 0.25 h. Format: functional.
Experiment [8] has as its system Rattus norvegicus. The experiment in a line: Maximal change in blood pressure recorded during the 4-day test period in spontaneously hypertensive rat (SHR) at 30 mg/kg, po dose. In kind it is functional.
Experiment [9] has as its system Rattus norvegicus. The experiment in a line: In vivo percent inhibition of angiotensin I pressor response 15 min after 10mg/kg, iv administration in spontaneously hypertensive rat (SHR). In kind it is functional. Conditions: 0.25 h.
Experiment [10] addresses T1, Angiotensin-converting enzyme. The experiment in a line: In vitro inhibition of angiotensin converting enzyme.
The test system of experiment [11] is Rattus norvegicus. The experiment in a line: In vivo percent inhibition of angiotensin I pressor response 15 min after 2 mg/kg, iv administration in spontaneously hypertensive rat (SHR). Format: functional. The following applies: 0.25 h.
Experiment [12] deals with Rattus norvegicus. The experiment in a line: In vivo percent inhibition of angiotensin I pressor response 15 min after 0.3 mg/kg, iv administration in spontaneously hypertensive rat (SHR). In kind it is functional. Conditions: 0.25 h.
In experiment [13] the test system is Rattus norvegicus. The experiment in a line: Maximal change in blood pressure recorded during the 4-day test period in spontaneously hypertensive rat (SHR)at 10mg/kg, po dose. In kind it is functional.

SMILES strings stand for the structures.

`CCOC(=O)[C@H](CCc1ccccc1)C[C@@H](C)C(=O)N1c2ccccc2CC1C(=O)O` (stereo not given in full): the IC50 in experiment [1] turned out to be 11000 nM. The inhibition in vivo at 0.4 mg/kg in the experiment with Rattus norvegicus [2] stood at 89%. In the experiment on Rattus norvegicus [3], this compound showed a Max delta BP of -70 mmHg.
As to `C[C@H](C[C@@H](CCc1ccccc1)C(=O)O)C(=O)N1c2ccccc2CC1C(=O)O` (stereo not given in full), the 50% inhibitory concentration (IC50) in experiment [1] amounted to 4.8 nM. In the experiment on Rattus norvegicus [4], this compound registered an inhibition in vivo at 0.1 mg/kg of 60%.
Consider `CCOC(=O)CC[C@@H](C)C(=O)N1c2ccccc2CC1C(=O)O` (stereo not given in full), for which the midpoint of inhibition in experiment [1], the IC50, lay at 11000 nM. This compound came in with a Max delta BP in the experiment with Rattus norvegicus [5] of -66 mmHg. This compound registered an inhibition in vivo at 0.1 mg/kg with Rattus norvegicus [4] of 27%.
In turn, `CC(C)(CC(=O)O)CC(=O)N1c2ccccc2CC1C(=O)O` (stereo not given) had an IC50 in experiment [1] of 290000 nM.
The same measure, in the same setting: the value for `C[C@H](C[C@@H](C)C(=O)N1CCC[C@H]1C(=O)O)C(=O)O` was 4800 nM.
In turn, `C[C@H](CCC(=O)O)C(=O)N1c2ccccc2CC1C(=O)O` (stereo not given in full) came in with an IC50 in [1] of 44 nM. The Max delta BP in the experiment with Rattus norvegicus [3] is -35 mmHg. In the experiment on Rattus norvegicus [6], this compound gave an inhibition in vivo at 1 mg/kg of 94%.
Take `CC(CC(=O)O)C(=O)N1c2ccccc2C[C@H]1C(=O)O` (stereo not given in full): the IC50 in experiment [1] came out at 300 nM. This compound displayed an inhibition in vivo at 1 mg/kg in the experiment on Rattus norvegicus [6] of 27%.
For the compound `O=C(O)CCCC(=O)N1c2ccccc2CC1C(=O)O` (stereo not given), 10 mg/kg produced 78% inhibition in vivo in the experiment with Rattus norvegicus [7]. Besides, inhibition in [1] was half-maximal at 260 nM (IC50). Moreover, the Max delta BP with Rattus norvegicus [8] was -37 mmHg.
In experiment [1], `C[C@H](C[C@@H](C)C(=O)N1c2ccccc2CC1C(=O)O)C(=O)O` (stereo not given in full) had an IC50 of 28 nM. The compound also yielded a Max delta BP with Rattus norvegicus [5] of -39 mmHg. Besides, in the experiment on Rattus norvegicus [4], the inhibition in vivo at 0.1 mg/kg came out at 45%.
Compound `CC(CCC(=O)O)C(=O)N1c2ccccc2CC1C(=O)O` (stereo not given) had an IC50 in experiment [1] of 64 nM. For the same compound, the Max delta BP in the experiment on Rattus norvegicus [5] is -61 mmHg. The compound further had an inhibition in vivo at 1 mg/kg in the experiment on Rattus norvegicus [6] of 84%.
Turning to `CC(CCC(N)=O)C(=O)N1c2ccccc2CC1C(=O)O` (stereo not given), in the experiment on Rattus norvegicus [9], the inhibition in vivo at 10 mg/kg amounted to 71%. The same compound yielded an IC50 in [1] of 16000 nM.
`COC(=O)CCC(C)C(=O)N1c2ccccc2CC1C(=O)O` (stereo not given) displayed an IC50 in [1] of 6900 nM. The compound also showed a Max delta BP with Rattus norvegicus [5] of -61 mmHg. Moreover, at 0.1 mg/kg the inhibition in vivo in the experiment with Rattus norvegicus [4] was 45%.
Regarding `Cc1ccc2c(c1)CC(C(=O)O)N2C(=O)[C@H](C)C[C@@H](C)C(=O)O` (stereo not given in full), the IC50 in [10] turned out to be 490 nM. Besides, the inhibition in vivo at 2 mg/kg in the experiment with Rattus norvegicus [11] worked out at 40%.
Regarding `O=C(O)CCCC(=O)N1CCC[C@H]1C(=O)O`, the IC50 in experiment [1] was determined as 70000 nM.
In experiment [1], `COc1ccc2c(c1)CC(C(=O)O)N2C(=O)[C@H](C)C[C@@H](C)C(=O)O` (stereo not given in full) had an IC50 of 110 nM. Also, the inhibition in vivo at 1 mg/kg with Rattus norvegicus [6] came to 56%.
For `CCOC(=O)[C@@H](CCC(=O)N1c2ccccc2CC1C(=O)O)CCc1ccccc1` (stereo not given in full) the same measures were 4300 nM and 17%.
With `CC(C)C(CCC(=O)O)C(=O)N1c2ccccc2CC1C(=O)O` (stereo not given), in experiment [1], the IC50 turned out to be 50 nM. In the experiment with Rattus norvegicus [6], the inhibition in vivo at 1 mg/kg is 77%.
In [1], `O=C(O)C1Cc2ccccc2N1C(=O)CC[C@@H](CCc1ccccc1)C(=O)O` (stereo not given in full) showed an IC50 of 33 nM.
Compound `CC(CCC(=O)N1c2ccccc2CC1C(=O)O)C(=O)O` (stereo not given) showed an inhibition in vivo at 10 mg/kg with Rattus norvegicus [9] of 41%. Further, the IC50 in [1] was found to be 920 nM.
For `CCOC(=O)C1Cc2ccccc2N1C(=O)CCC(C)C(=O)O` (stereo not given) the same measures were 11% and 170000 nM.
Compound `O=C(O)C(CCC(=O)N1c2ccccc2CC1C(=O)O)CCc1ccccc1` (stereo not given) showed an inhibition in vivo at 10 mg/kg in the experiment with Rattus norvegicus [9] of 75%. In experiment [1], this compound showed an IC50 of 39 nM. Moreover, the Max delta BP in the experiment with Rattus norvegicus [5] is -46 mmHg.
The compound `CC(CC(=O)O)CC(=O)N1c2ccccc2CC1C(=O)O` (stereo not given) registered an inhibition in vivo at 10 mg/kg with Rattus norvegicus [9] of 20%. Further, in [1], the IC50 stood at 37000 nM.
In turn, `CCOC(=O)C1Cc2ccccc2N1C(=O)C(C)CC(C)C(=O)O` (stereo not given) registered an inhibition in vivo at 10 mg/kg with Rattus norvegicus [9] of 84%. The compound further came in with an IC50 in experiment [1] of 8800 nM. The compound also returned a Max delta BP in the experiment on Rattus norvegicus [5] of -33 mmHg.
For the compound `CCOC(=O)C1Cc2ccccc2N1C(=O)[C@H](C)C[C@@H](C)C(=O)O` (stereo not given in full), in experiment [1], the IC50 is 28000 nM. This compound gave an inhibition in vivo at 0.3 mg/kg with Rattus norvegicus [12] of 16%.
`CCOC(=O)[C@H](C)C[C@@H](C)C(=O)N1c2ccccc2CC1C(=O)O` (stereo not given in full) displayed an IC50 in experiment [1] of 5500 nM. The same compound showed a Max delta BP with Rattus norvegicus [5] of -75 mmHg. The inhibition in vivo at 0.1 mg/kg in the experiment on Rattus norvegicus [4] stood at 52%.
Compound `C[C@H](C[C@@H](C)C(=O)N1c2ccc(Cl)cc2CC1C(=O)O)C(=O)O` (stereo not given in full) showed an IC50 in [1] of 440 nM. In the experiment with Rattus norvegicus [11], this compound had an inhibition in vivo at 2 mg/kg of 32%.
As to `CC(CC(C)C(=O)N1c2ccccc2CC1C(=O)O)C(=O)O` (stereo in doubt; 6m), in experiment [1], the IC50 amounted to 190 nM. The compound further came in with an inhibition in vivo at 1 mg/kg in the experiment on Rattus norvegicus [6] of 76%.
For `CC(CC(C)C(=O)N1c2ccccc2CC1C(=O)O)C(=O)O` (stereo in doubt; 6n), the IC50 in experiment [1] is 54 nM. Further, the Inhibition with Rattus norvegicus [6] (1 mg/kg) turned out to be 84%.
As to `C[C@H](CS)C(=O)N1CCC[C@H]1C(=O)O` [CAPTOPRIL], the Max delta BP with Rattus norvegicus [3] was -55 mmHg; with Rattus norvegicus [13] it was -45 mmHg. The same compound came in with an inhibition in vivo at 1 mg/kg in the experiment with Rattus norvegicus [6] of 90%.
